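Results reflect a 48-hour exposure of cells in 96-well plates to compound at five concentrations. The concentration for 50% growth inhibition is given as GI50.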 Activity calls are given as the source filed them. Cut-off read from the data, not from the text of the source: active = GI50 up to about 1.1 µM and inactive = higher.
Assays:
Test in all cases: NCI tumour cell line growth inhibition, 48 h
TK-10 = tested on: TK-10
SK-MEL-5 = tested on: SK-MEL-5
SNB-75 = tested on: SNB-75
OVCAR-3 = tested on: OVCAR-3
SK-MEL-28 = tested on: SK-MEL-28
Malme-3M = tested on: Malme-3M
HCT-116 = tested on: HCT-116
M14 = tested on: M14
UACC-62 = tested on: UACC-62
OVCAR-5 = tested on: OVCAR-5
HT-29 = tested on: HT-29
RPMI-8226 = tested on: RPMI-8226
OVCAR-4 = tested on: OVCAR-4
SF-295 = tested on: SF-295
RXF 393 = tested on: RXF 393
A498 = tested on: A498
NCI-H522 = tested on: NCI-H522

Measured: GI50

COC(=O)c1c(-c2ccccc2)sc(-c2cccc3ccccc23)c1C(=O)OC
inactive: TK-10 > 100 µM | SK-MEL-5 > 100 µM | SNB-75 > 100 µM | OVCAR-3 81.1 µM | SK-MEL-28 > 100 µM | Malme-3M 21.9 µM | HCT-116 > 100 µM | M14 > 100 µM | UACC-62 > 100 µM | OVCAR-5 > 100 µM | HT-29 51.3 µM | RPMI-8226 > 100 µM | OVCAR-4 84.7 µM | SF-295 > 100 µM | RXF 393 > 100 µM | A498 > 100 µM | NCI-H522 > 100 µM

Cc1c(/C=N/NC(=O)c2cc(Br)cc(Br)c2O)c(=O)n(-c2ccccc2)n1C
inactive: TK-10 69.8 µM | SK-MEL-5 51.6 µM | SNB-75 > 100 µM | OVCAR-3 29.9 µM | SK-MEL-28 20.8 µM | Malme-3M 67.3 µM | HCT-116 56.4 µM | M14 36.9 µM | UACC-62 19.6 µM | OVCAR-5 > 100 µM | HT-29 64.7 µM | RPMI-8226 85.7 µM | OVCAR-4 > 100 µM | SF-295 > 100 µM | A498 > 100 µM | NCI-H522 33 µM

COC1=CC(=O)C2C(C1=O)[C@@H]1c3ccccc3OC(C)(C)[C@H]21 (stereo partly specified)
inactive: TK-10 21.1 µM | SK-MEL-5 27.4 µM | SNB-75 10.6 µM | OVCAR-3 15.1 µM | SK-MEL-28 17.4 µM | Malme-3M 18.9 µM | HCT-116 16.2 µM | M14 18.7 µM | UACC-62 > 10 µM | OVCAR-5 40.8 µM | HT-29 28.1 µM | RPMI-8226 26.6 µM | OVCAR-4 17.9 µM | SF-295 71 µM | RXF 393 14.1 µM | A498 > 100 µM | NCI-H522 13.9 µM

NC(=O)C(=Cc1ccc(CP(=O)(O)O)cc1)C(N)=O
inactive: TK-10 > 100 µM | SK-MEL-5 > 100 µM | SNB-75 > 100 µM | OVCAR-3 > 100 µM | SK-MEL-28 > 100 µM | Malme-3M > 100 µM | HCT-116 > 100 µM | M14 > 100 µM | UACC-62 > 100 µM | OVCAR-5 > 100 µM | HT-29 > 100 µM | RPMI-8226 > 100 µM | OVCAR-4 > 100 µM | SF-295 > 100 µM | RXF 393 > 100 µM | A498 > 100 µM | NCI-H522 > 100 µM

O=C(CC1C(=O)Nc2ccccc2S1(=O)=O)Nc1cccc(Cl)c1 (stereo unspecified)
inactive: TK-10 22.3 µM | SK-MEL-5 19.1 µM | SNB-75 16.8 µM | OVCAR-3 15.6 µM | SK-MEL-28 20.1 µM | Malme-3M 23.7 µM | HCT-116 18.2 µM | M14 18.8 µM | UACC-62 15.1 µM | OVCAR-5 23.2 µM | HT-29 17.5 µM | RPMI-8226 3.93 µM | OVCAR-4 20.1 µM | SF-295 24.7 µM | RXF 393 16.3 µM | A498 18.9 µM | NCI-H522 16.9 µM

O=C(O)CCSC(=O)Nc1ccc(/N=N/c2ccccc2)cc1
inactive: TK-10 > 100 µM | SK-MEL-5 > 100 µM | SNB-75 > 100 µM | OVCAR-3 > 100 µM | SK-MEL-28 > 100 µM | Malme-3M > 100 µM | HCT-116 > 100 µM | M14 > 100 µM | UACC-62 59.4 µM | OVCAR-5 > 100 µM | HT-29 > 100 µM | RPMI-8226 > 100 µM | OVCAR-4 95.1 µM | SF-295 64 µM | RXF 393 > 100 µM | A498 69.5 µM

CCOC(=O)C1=C(O)C(=O)c2cc(C)ccc2C1=O
inactive: TK-10 > 100 µM | SK-MEL-5 31 µM | SNB-75 43.5 µM | OVCAR-3 93.3 µM | SK-MEL-28 > 100 µM | Malme-3M 65.3 µM | HCT-116 81.7 µM | M14 54.8 µM | UACC-62 44.1 µM | OVCAR-5 > 100 µM | HT-29 > 100 µM | RPMI-8226 > 100 µM | OVCAR-4 > 100 µM | SF-295 54.3 µM | RXF 393 > 100 µM | A498 21.9 µM | NCI-H522 > 100 µM

Cc1c(N2CCOCC2)nc2ccc(Cl)cc2c1-c1ccccc1
inactive: TK-10 > 100 µM | SK-MEL-5 21 µM | SNB-75 31.4 µM | OVCAR-3 64.7 µM | SK-MEL-28 > 100 µM | Malme-3M 60.5 µM | HCT-116 56.9 µM | M14 > 100 µM | UACC-62 > 100 µM | HT-29 57.1 µM | RPMI-8226 46.9 µM | OVCAR-4 50.7 µM | SF-295 > 100 µM | RXF 393 62.2 µM | A498 > 100 µM | NCI-H522 30.8 µM

COC(=O)/C(C#N)=C(\N)C(Cl)(Cl)Cl
active: HCT-116 0.643 µM
inactive: TK-10 2.55 µM | SK-MEL-5 1.69 µM | SNB-75 3.85 µM | OVCAR-3 3.3 µM | SK-MEL-28 2 µM | M14 1.43 µM | UACC-62 1.37 µM | RPMI-8226 1.57 µM | OVCAR-4 2.67 µM | SF-295 5.09 µM | RXF 393 1.61 µM | A498 3.4 µM | NCI-H522 1.9 µM

CC1OC(OC2CCCc3c(O)c4c(c(O)c32)C(=O)c2ccccc2C4=O)CC(N)C1O (stereo unspecified)
active: RXF 393 1.02 µM
inactive: TK-10 1.6 µM | SK-MEL-5 1.82 µM | SNB-75 1.35 µM | OVCAR-3 1.34 µM | SK-MEL-28 1.88 µM | Malme-3M 1.82 µM | HCT-116 1.72 µM | M14 1.79 µM | OVCAR-5 1.91 µM | HT-29 1.47 µM | RPMI-8226 1.58 µM | OVCAR-4 1.68 µM | SF-295 1.82 µM | A498 1.7 µM | NCI-H522 1.64 µM

CCCOP1(=O)C=CC(Cl)=C(C)C1 (stereo unspecified)
inactive: TK-10 42.4 µM | SK-MEL-5 45.6 µM | SNB-75 55.8 µM | OVCAR-3 27.4 µM | SK-MEL-28 19.3 µM | Malme-3M 21 µM | HCT-116 17.1 µM | M14 33 µM | UACC-62 19.1 µM | OVCAR-5 20.7 µM | HT-29 55.3 µM | RPMI-8226 22.3 µM | OVCAR-4 36.6 µM | SF-295 45.8 µM | RXF 393 16 µM | A498 82.8 µM | NCI-H522 15.9 µM

CCCN1CN(C(C(=O)N[C@@H]2C(=O)N3C2SC(C)(C)C3C(=O)O)c2ccccc2)CSC1=S (stereo partly specified)
inactive: TK-10 > 100 µM | SK-MEL-5 > 100 µM | SNB-75 > 100 µM | OVCAR-3 32.2 µM | SK-MEL-28 > 100 µM | Malme-3M > 100 µM | HCT-116 57.1 µM | M14 > 100 µM | UACC-62 > 100 µM | OVCAR-5 > 100 µM | HT-29 48.1 µM | RPMI-8226 53.6 µM | OVCAR-4 > 100 µM | SF-295 > 100 µM | A498 > 100 µM | NCI-H522 23.1 µM

O=C1CC2(C[C@@H]3CCCCCCCCC[C@@H](C3)C2)N1 (stereo partly specified)
inactive: TK-10 17.1 µM | SK-MEL-5 16.4 µM | SNB-75 6.71 µM | SK-MEL-28 17.2 µM | Malme-3M 11.8 µM | HCT-116 19.5 µM | M14 14.8 µM | UACC-62 15.8 µM | OVCAR-5 15.4 µM | HT-29 12.8 µM | RPMI-8226 13.7 µM | OVCAR-4 17.9 µM | SF-295 17 µM | RXF 393 16.2 µM | A498 16.7 µM | NCI-H522 16.3 µM

CCOc1ccc(/C=C/C(=O)c2sc(NNC(C)=O)nc2C)cc1
inactive: TK-10 > 100 µM | SK-MEL-5 > 100 µM | SNB-75 > 100 µM | OVCAR-3 > 100 µM | SK-MEL-28 > 100 µM | Malme-3M > 100 µM | UACC-62 > 100 µM | OVCAR-5 > 100 µM | HT-29 > 100 µM | RPMI-8226 > 100 µM | SF-295 > 100 µM | RXF 393 > 100 µM | A498 > 100 µM | NCI-H522 > 100 µM

COc1nc2nccc-2c2occn12
inactive: TK-10 > 100 µM | SK-MEL-5 > 100 µM | SNB-75 > 100 µM | OVCAR-3 > 100 µM | SK-MEL-28 > 100 µM | Malme-3M > 100 µM | HCT-116 > 100 µM | M14 > 100 µM | UACC-62 > 100 µM | OVCAR-5 > 100 µM | HT-29 > 100 µM | RPMI-8226 > 100 µM | OVCAR-4 > 100 µM | SF-295 > 100 µM | RXF 393 > 100 µM | A498 > 100 µM | NCI-H522 > 100 µM

O=C1O[B-](c2ccccc2)(c2ccccc2)[NH2+]C1CS (stereo unspecified)
inactive: TK-10 85.1 µM | SK-MEL-5 55 µM | SNB-75 34.8 µM | OVCAR-3 38.8 µM | SK-MEL-28 66.1 µM | Malme-3M 38.2 µM | HCT-116 33.7 µM | M14 52.6 µM | UACC-62 42 µM | OVCAR-5 > 100 µM | HT-29 71.3 µM | RPMI-8226 20.2 µM | OVCAR-4 47.2 µM | SF-295 > 100 µM | RXF 393 23.3 µM | A498 41.8 µM | NCI-H522 43.3 µM

COc1ccc2cc3[n+](cc2c1O)CCc1cc2c(cc1-3)OCO2 [BERBERRUBINE CHLORIDE]
inactive: TK-10 > 100 µM | SNB-75 > 100 µM | OVCAR-3 > 100 µM | SK-MEL-28 > 100 µM | Malme-3M > 100 µM | HCT-116 83 µM | M14 > 100 µM | UACC-62 > 100 µM | OVCAR-5 > 100 µM | HT-29 96.4 µM | RPMI-8226 > 100 µM | OVCAR-4 > 100 µM | SF-295 > 100 µM | RXF 393 > 100 µM | A498 > 100 µM | NCI-H522 > 100 µM

From ChEMBL document CHEMBL1201862, “PubChem BioAssay data set” (2004)
